Experimental data from PubChem BioAssay AID624300 (Southern Research Specialized Biocontainment Screening …, 2012).

Tested on: HeLa viability, CellTiter-Glo luminescence, 24 h
Test: HeLa cell cytotoxicity, dose response, cytotoxicity control for MgcRacGAP inhibitor project (AID 624300)

C#CCOCCOCCOCCNc1nc(N2CCN(C(=O)CCCCCCCCCCNC(=O)[C@@H](CCSC)n3cc(CCO)nn3)CC2)nc(N2CCN(C(=O)CCCCCCCCCCNC(=O)[C@H](CO)n3cc(CCCCCN)nn3)CC2)n1 gave a CC50 of 85.3 µM.
